PubChem BioAssay (NCI)
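Values below derive from 48-hour exposures of cells grown in 96-well plates, with endpoints linearly interpolated between the two concentrations bracketing the appropriate inhibition level. GI50 is the concentration that inhibits growth by half. TGI: total growth inhibition.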

Key:
Assay in all cases: NCI anticancer screen, dose series, 48 h
[1] = tested on: HCC-2998 colon
[2] = tested on: K-562 leukemia
[3] = tested on: SF-539 CNS
[4] = tested on: UACC-62 melanoma
[5] = tested on: UO-31 renal
[6] = tested on: NCI-H460 lung
[7] = tested on: NCI-H522 lung
[8] = tested on: SK-MEL-2 melanoma
[9] = tested on: OVCAR-4 ovarian
[10] = tested on: MDA-MB-435
[11] = tested on: RPMI-8226 leukemia
[12] = tested on: SNB-75 CNS
[13] = tested on: PC-3 prostate
[14] = tested on: RXF 393 renal
[15] = tested on: M14 melanoma
[16] = tested on: NCI-H226 lung
[17] = tested on: SK-MEL-5 melanoma
[18] = tested on: MOLT-4 leukemia
[19] = tested on: SK-MEL-28 melanoma
[20] = tested on: SW-620 colon
[21] = tested on: MDA-MB-231 breast
[22] = tested on: MCF7 breast
[23] = tested on: HS 578T breast
[24] = tested on: NCI-H23 lung
[25] = tested on: SF-268 CNS
[26] = tested on: U251 CNS
[27] = tested on: HCT-116 colon
[28] = tested on: HT29 colon
[29] = tested on: NCI/ADR-RES ovarian
[30] = tested on: COLO 205 colon
[31] = tested on: HL-60(TB) leukemia
[32] = tested on: HOP-62 NSCLC
[33] = tested on: 786-0 renal
[34] = tested on: CAKI-1 renal
[35] = tested on: A498 renal
[36] = tested on: OVCAR-5 ovarian
[37] = tested on: OVCAR-3 ovarian
[38] = tested on: BT-549 breast
[39] = tested on: SN12C renal
[40] = tested on: T-47D breast
[41] = tested on: KM12 colon
[42] = tested on: HOP-92 NSCLC
[43] = tested on: OVCAR-8 ovarian
[44] = tested on: EKVX NSCLC
[45] = tested on: SNB-19 CNS
[46] = tested on: SF-295 CNS
[47] = tested on: CCRF-CEM leukemia
[48] = tested on: IGROV1 ovarian
[49] = tested on: A549 NSCLC
[50] = tested on: MALME-3M melanoma
[51] = tested on: LOX IMVI melanoma
[52] = tested on: SR leukemia
[53] = tested on: ACHN renal
[54] = tested on: DU-145 prostate
[55] = tested on: SK-OV-3 ovarian
[56] = tested on: HCT-15 colon
[57] = tested on: TK-10 renal
[58] = tested on: UACC-257 melanoma

`Cn1cc(-c2nonc2-c2cn(C)c3ccc(F)cc23)c2ccccc21` was tested, and the GI50 [1] was 958 nM, the TGI [1] was greater than 100000 nM and the GI50 [2] was 311 nM. The TGI [2] was greater than 100000 nM, the GI50 [3] was 291 nM and the TGI [3] was 1580 nM. The GI50 [4] was 469 nM, the TGI [4] was greater than 100000 nM and the GI50 [5] was 438 nM. For the same compound, the TGI [5] was greater than 100000 nM, the GI50 [6] was 390 nM and the TGI [6] was greater than 100000 nM. It also gave a GI50 [7] of 357 nM, a TGI [7] greater than 100000 nM and a GI50 [8] of 552 nM. For the same compound, the TGI [8] was greater than 100000 nM, the TGI [9] was greater than 100000 nM and the GI50 [10] was 199 nM. For the same compound, the TGI [10] was 623 nM, the GI50 [11] was 463 nM and the TGI [11] was greater than 100000 nM. For the same compound, the GI50 [12] was 206 nM, the TGI [12] was 702 nM and the GI50 [13] was 427 nM. For the same compound, the TGI [13] was greater than 100000 nM, the GI50 [14] was 271 nM and the TGI [14] was 873 nM. The GI50 [15] was 342 nM, the TGI [15] was greater than 100000 nM and the GI50 [16] was 2560 nM. The TGI [16] was greater than 100000 nM, the GI50 [17] was 502 nM and the TGI [17] was greater than 100000 nM. For the same compound, the GI50 [18] was 685 nM, the TGI [18] was greater than 100000 nM and the GI50 [19] was 3500 nM. For the same compound, the TGI [19] was greater than 100000 nM, the GI50 [20] was 361 nM and the TGI [20] was greater than 100000 nM. It also gave a GI50 [21] of 869 nM, a TGI [21] greater than 100000 nM and a GI50 [22] of 366 nM. For the same compound, the TGI [22] was greater than 100000 nM, the GI50 [23] was 299 nM and the GI50 [24] was 836 nM. For the same compound, the TGI [24] was greater than 100000 nM, the GI50 [25] was 1210 nM and the TGI [25] was greater than 100000 nM. For the same compound, the GI50 [26] was 469 nM, the TGI [26] was greater than 100000 nM and the GI50 [27] was 432 nM. It also gave a TGI [27] greater than 100000 nM, a GI50 [28] of 346 nM and a TGI [28] greater than 100000 nM. It also gave a GI50 [29] of 395 nM, a TGI [29] greater than 58300 nM and a GI50 [30] of 856 nM. The TGI [30] was greater than 100000 nM, the GI50 [31] was 306 nM and the TGI [31] was 2300 nM. The GI50 [32] was 590 nM, the TGI [32] was greater than 100000 nM and the GI50 [33] was 614 nM. The TGI [33] was greater than 100000 nM, the GI50 [34] was 416 nM and the TGI [34] was greater than 100000 nM. For the same compound, the GI50 [35] was 273 nM, the TGI [35] was 976 nM and the GI50 [36] was 1050 nM. For the same compound, the TGI [36] was greater than 100000 nM, the GI50 [37] was 340 nM and the GI50 [38] was 923 nM. It also gave a TGI [38] greater than 100000 nM, a GI50 [39] of 724 nM and a TGI [39] greater than 100000 nM. It also gave a GI50 [40] of 809 nM, a TGI [40] greater than 100000 nM and a GI50 [41] of 433 nM. It also gave a TGI [41] greater than 100000 nM, a GI50 [42] of 439 nM and a TGI [42] greater than 100000 nM. It also gave a GI50 [43] of 630 nM, a TGI [43] greater than 100000 nM and a GI50 [44] of 721 nM. It also gave a TGI [44] greater than 100000 nM, a GI50 [45] of 555 nM and a TGI [45] greater than 100000 nM. The GI50 [46] was 299 nM, the GI50 [47] was 319 nM and the TGI [47] was greater than 100000 nM. For the same compound, the GI50 [48] was 522 nM, the TGI [48] was greater than 100000 nM and the GI50 [49] was 703 nM. It also gave a TGI [49] greater than 100000 nM, a GI50 [50] of 540 nM and a TGI [50] greater than 100000 nM. For the same compound, the GI50 [51] was 564 nM, the TGI [51] was greater than 100000 nM and the GI50 [52] was 269 nM. For the same compound, the TGI [52] was greater than 100000 nM, the GI50 [53] was 595 nM and the TGI [53] was greater than 100000 nM. The GI50 [54] was 530 nM, the TGI [54] was greater than 100000 nM and the GI50 [55] was 594 nM. For the same compound, the TGI [55] was greater than 100000 nM, the GI50 [56] was 398 nM and the TGI [56] was greater than 100000 nM. For the same compound, the GI50 [57] was greater than 20400 nM and the TGI [57] was greater than 100000 nM.
`Clc1ccc(CNc2ccc3nc(CCC4CCCCC4)[nH]c3c2)cc1` showed a GI50 [1] of 1810 nM, a TGI [1] of 3410 nM and a GI50 [2] of 2090 nM. The TGI [2] was 5020 nM, the GI50 [3] was 2140 nM and the TGI [3] was 4830 nM. The GI50 [4] was 1760 nM, the TGI [4] was 3410 nM and the GI50 [5] was 1490 nM. It also gave a TGI [5] of 3290 nM, a GI50 [6] of 2150 nM and a TGI [6] of 4820 nM. The GI50 [7] was 1710 nM, the TGI [7] was 3950 nM and the GI50 [8] was 2240 nM. For the same compound, the TGI [8] was 5120 nM, the GI50 [9] was 3500 nM and the TGI [9] was 90700 nM. The GI50 [10] was 1880 nM, the TGI [10] was 4100 nM and the GI50 [11] was 2090 nM. It also gave a TGI [11] of 5020 nM, a GI50 [12] of 1910 nM and a TGI [12] of 5810 nM. The GI50 [13] was 2660 nM, the TGI [13] was 10900 nM and the GI50 [14] was 1970 nM. The TGI [14] was 4950 nM, the GI50 [15] was 1930 nM and the TGI [15] was 3950 nM. For the same compound, the GI50 [16] was 1760 nM, the TGI [16] was 4160 nM and the GI50 [17] was 1690 nM. For the same compound, the TGI [17] was 3090 nM, the GI50 [18] was 2520 nM and the TGI [18] was 8230 nM. For the same compound, the GI50 [20] was 1780 nM, the TGI [20] was 3700 nM and the GI50 [21] was 1640 nM. For the same compound, the TGI [21] was 3180 nM, the GI50 [22] was 1800 nM and the TGI [22] was 4630 nM. It also gave a GI50 [23] of 2120 nM, a TGI [23] of 6370 nM and a GI50 [24] of 2070 nM. It also gave a TGI [24] of 4940 nM, a GI50 [25] of 3130 nM and a TGI [25] of 29900 nM. The GI50 [26] was 1730 nM, the TGI [26] was 3470 nM and the GI50 [27] was 1930 nM. The TGI [27] was 4960 nM, the GI50 [28] was 1900 nM and the TGI [28] was 4660 nM. For the same compound, the GI50 [29] was 2500 nM, the TGI [29] was 7970 nM and the GI50 [30] was 1930 nM. The TGI [30] was 3730 nM, the GI50 [31] was 2030 nM and the TGI [31] was 4700 nM. It also gave a GI50 [32] of 2010 nM, a TGI [32] of 4160 nM and a GI50 [33] of 2030 nM. The TGI [33] was 4400 nM, the GI50 [34] was 2460 nM and the TGI [34] was 6530 nM. It also gave a GI50 [35] of 1360 nM, a TGI [35] of 3400 nM and a GI50 [36] of 2390 nM. The TGI [36] was 6680 nM, the GI50 [37] was 3020 nM and the TGI [37] was 12200 nM. For the same compound, the GI50 [38] was 2140 nM, the TGI [38] was 7240 nM and the GI50 [39] was 2760 nM. It also gave a TGI [39] of 11500 nM, a GI50 [40] of 2240 nM and a TGI [40] of 6550 nM. The GI50 [41] was 2490 nM, the TGI [41] was 7000 nM and the GI50 [42] was 1470 nM. For the same compound, the TGI [42] was 3800 nM, the GI50 [43] was 3180 nM and the TGI [43] was 19900 nM. For the same compound, the GI50 [44] was 2200 nM, the TGI [44] was 7060 nM and the GI50 [45] was 3120 nM. For the same compound, the TGI [45] was 14800 nM, the GI50 [46] was 1960 nM and the TGI [46] was 4070 nM. The GI50 [47] was 3270 nM, the TGI [47] was greater than 100000 nM and the GI50 [48] was 3000 nM. It also gave a TGI [48] of 36900 nM, a GI50 [49] of 3140 nM and a TGI [49] greater than 100000 nM. For the same compound, the GI50 [50] was 1770 nM, the TGI [50] was 4080 nM and the GI50 [51] was 1700 nM. For the same compound, the TGI [51] was 3100 nM, the GI50 [52] was 3150 nM and the TGI [52] was 9920 nM. The GI50 [53] was 3030 nM, the TGI [53] was 11200 nM and the GI50 [54] was 3700 nM. The TGI [54] was 23200 nM, the GI50 [55] was 2320 nM and the TGI [55] was 5950 nM. The GI50 [56] was 1830 nM, the TGI [56] was 5640 nM and the GI50 [58] was 2300 nM. For the same compound, the TGI [58] was 6300 nM, the GI50 [57] was 2610 nM and the TGI [57] was 7870 nM.
